Results published in PubChem BioAssay (NCI).
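Grown in 96-well plates, cells were treated for 48 hours with each compound at five concentrations. Insufficient inhibition: endpoint recorded as highest concentration tested. GI50 = concentration required for 50% inhibition of growth. TGI: concentration producing complete growth inhibition.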

Key:
Experiment in all cases: growth of human tumour cells (NCI), 48 h
KM12 colon = test system: KM12 colon
TK-10 renal = test system: TK-10 renal
A549 NSCLC = test system: A549 NSCLC
HT29 colon = test system: HT29 colon
RPMI-8226 leukemia = test system: RPMI-8226 leukemia
NCI-H460 lung = test system: NCI-H460 lung
OVCAR-3 ovarian = test system: OVCAR-3 ovarian
NCI-H522 lung = test system: NCI-H522 lung
U251 CNS = test system: U251 CNS
SNB-75 CNS = test system: SNB-75 CNS

| Structure (SMILES) | TGI (KM12 colon) | TGI (TK-10 renal) | TGI (A549 NSCLC) | TGI (HT29 colon) | TGI (RPMI-8226 leukemia) | TGI (NCI-H460 lung) | TGI (OVCAR-3 ovarian) | TGI (NCI-H522 lung) | TGI (U251 CNS) | TGI (SNB-75 CNS) | GI50 (KM12 colon) | GI50 (TK-10 renal) | GI50 (SNB-75 CNS) | GI50 (A549 NSCLC) | GI50 (HT29 colon) | GI50 (RPMI-8226 leukemia) | GI50 (NCI-H460 lung) | GI50 (OVCAR-3 ovarian) | GI50 (NCI-H522 lung) | GI50 (U251 CNS) |
| --- | --- | --- | --- | --- | --- | --- | --- | --- | --- | --- | --- | --- | --- | --- | --- | --- | --- | --- | --- | --- |
| COc1cc(Cc2ccc3c(c2C#N)N(C)c2ccccc2S3)cc(OC)c1OC | > 100 µM | > 100 µM | > 100 µM | > 100 µM | > 100 µM | > 100 µM | > 100 µM | > 100 µM | > 100 µM | – | – | – | – | – | – | – | – | – | – | – |
| CCOC(=O)/C(=N/Nc1ccc(Cl)cc1)N1C(=S)C=C(C)NN(C)C1=S | > 100 µM | > 100 µM | > 100 µM | > 100 µM | > 100 µM | > 100 µM | > 100 µM | 50.2 µM | 39.5 µM | 69.3 µM | – | – | – | – | – | – | – | – | – | – |
| COc1cc2nc(N3CCC[C@@H](NC4=CC(=O)c5ccccc5C4=O)C3)nc(N)c2cc1OC | 3.33 µM | 3.85 µM | 3.8 µM | 3.82 µM | 5.58 µM | 4.36 µM | 3.81 µM | 4.31 µM | 3.46 µM | 3.25 µM | 1.81 µM | 2.1 µM | 1.64 µM | 1.97 µM | 1.88 µM | 2.33 µM | 2.1 µM | 2.03 µM | 1.98 µM | 1.86 µM |
| CCOC(=O)C(=O)Nc1cccc(C)c1C | > 100 µM | > 100 µM | > 100 µM | > 100 µM | > 100 µM | > 100 µM | > 100 µM | > 100 µM | > 100 µM | > 100 µM | – | – | – | – | – | – | – | – | – | – |
| COc1cc(C2S/C(=C/c3ccccc3)C(=O)N2c2ccccc2Cl)cc(OC)c1OC (stereo not given) | > 100 µM | > 100 µM | > 100 µM | 47.5 µM | – | – | – | 39.2 µM | 55.9 µM | 29.6 µM | – | – | – | – | – | – | – | – | – | – |
| COC(=O)C1=C(O)C(C(=O)OC)[C@@]2(O)[C@@H](C(=O)OC)CC[C@@H]1[C@@H]2C(=O)OC (stereo not given in full) | 66 µM | 93.4 µM | – | > 100 µM | 97.3 µM | 35.9 µM | 58.8 µM | 52.4 µM | 64.6 µM | 64.8 µM | – | – | – | – | – | – | – | – | – | – |
| BrC1=CN2C[n+]3cc(Br)c4ccccc4c3N=C2c2ccccc21 | 15.9 µM | 55 µM | > 100 µM | 38.6 µM | 30.5 µM | 32.9 µM | 8.86 µM | 32.2 µM | 21.9 µM | 10.9 µM | – | – | – | – | – | – | – | – | – | – |
